Assay results published in patent EP0550016A1, “Novel quinolone carboxylic acid derivatives and processes for preparing same” (KOREA RESEARCH INSTITUTE OF CHEMICAL TECHNOLOGY, priority 1991, dated 1993).
In brackets after ≈: the same amount, converted by molar mass. Where two headings read alike, the source gives them in different places.

What was measured:
[1] = test system: Pseudomonas aeruginosa 1592 E; assay: In vitro anti-bacterial activity test (MIC, two-fold dilution method) against the standard strains; format: cell-based; details: Table 1 strain 13: Pseudomonas aeruginosa 1592 E
[2] = test system: Staphylococcus aureus 711 E; assay: In vitro anti-bacterial activity test (MIC, two-fold dilution method), Table 2 strains; format: cell-based; details: Table 2 strain 17: Staphylococcus aureus 711 E; read-out: MIC
[3] = test system: Pseudomonas aeruginosa 9027; assay: In vitro anti-bacterial activity test (MIC, two-fold dilution method) against the standard strains; format: cell-based; details: Table 1 strain 12: Pseudomonas aeruginosa 9027
[4] = test system: Staphylococcus aureus 725 E; assay: In vitro anti-bacterial activity test (MIC, two-fold dilution method), Table 2 strains; format: cell-based; details: Table 2 strain 19: Staphylococcus aureus 725 E; read-out: MIC
Escherichia coli DC 2 = assay: In vitro anti-bacterial activity test (MIC, two-fold dilution method) against the standard strains; format: cell-based; details: DC2; Table 1 strain 9: Escherichia coli DC 2; read-out: MIC
[5] = test system: Staphylococcus aureus 693 E; assay: In vitro anti-bacterial activity test (MIC, two-fold dilution method), Table 2 strains; format: cell-based; details: Table 2 strain 7: Staphylococcus aureus 693 E; read-out: MIC
[6] = test system: Klebsiella aerogenes 1082 E; assay: In vitro anti-bacterial activity test (MIC, two-fold dilution method) against the standard strains; format: cell-based; details: Table 1 strain 17: Klebsiella aerogenes 1082 E
[7] = test system: Enterobacter cloacae P 99; assay: as above; format: cell-based; details: P99; Table 1 strain 19: Enterobacter cloacae P 99
[8] = test system: Staphylococcus aureus 121 E; assay: In vitro anti-bacterial activity test (MIC, two-fold dilution method), Table 2 strains; format: cell-based; details: Table 2 strain 2: Staphylococcus aureus 121 E; read-out: MIC
[9] = test system: Streptococcus pyogenes 77 A; assay: In vitro anti-bacterial activity test (MIC, two-fold dilution method) against the standard strains; format: cell-based; details: Table 1 strain 2: Streptococcus pyogenes 77 A; read-out: MIC
[10] = test system: Staphylococcus aureus 703 E; assay: In vitro anti-bacterial activity test (MIC, two-fold dilution method), Table 2 strains; format: cell-based; details: Table 2 strain 12: Staphylococcus aureus 703 E; read-out: MIC
[11] = test system: Staphylococcus aureus 705 E; assay: as above; format: cell-based; details: Table 2 strain 13: Staphylococcus aureus 705 E; read-out: MIC
[12] = test system: Staphylococcus aureus 714 E; assay: as above; format: cell-based; details: Table 2 strain 18: Staphylococcus aureus 714 E; read-out: MIC
Salmonella typhimurium = assay: In vitro anti-bacterial activity test (MIC, two-fold dilution method) against the standard strains; format: cell-based; details: Salmonella enterica; Table 1 strain 16: Salmonella typhimurium
[13] = test system: Staphylococcus aureus 690 E; assay: In vitro anti-bacterial activity test (MIC, two-fold dilution method), Table 2 strains; format: cell-based; details: Table 2 strain 5: Staphylococcus aureus 690 E; read-out: MIC
[14] = test system: Staphylococcus aureus 697 E; assay: as above; format: cell-based; details: Table 2 strain 10: Staphylococcus aureus 697 E
[15] = test system: Staphylococcus aureus 708 E; assay: as above; format: cell-based; details: Table 2 strain 16: Staphylococcus aureus 708 E
[16] = test system: Staphylococcus aureus 88 E; assay: as above; format: cell-based; details: Table 2 strain 1: Staphylococcus aureus 88 E
[17] = test system: Staphylococcus aureus 256 E; assay: as above; format: cell-based; details: Table 2 strain 4: Staphylococcus aureus 256 E
[18] = test system: Staphylococcus aureus 695 E; assay: as above; format: cell-based; details: Table 2 strain 9: Staphylococcus aureus 695 E; read-out: MIC
S. aureus 17740 = assay: Preventive effect against the systemic infection; format: in vivo; details: Staphylococcus aureus, 168 h, NMRI mice, survival on day 7, read-out: ED₅₀
Method: (§1) 10 fold of the pathogen which leads to 100% lethality were injected intraperitoneally to male and female NMRI mice weighing 18 to 20g. Immediately and after 4 hours, the dose of test compounds which was determined by two-fold serial dilution method was administered orally or subcutaneously; and on day 7, the effectiveness was evaluated in terms of ED₅₀ calculated from the number of survived mice by the probit analysis.

P. mirabilis = assay: Preventive effect against the systemic infection; format: in vivo; details: Proteus mirabilis, 168 h, NMRI mice, survival on day 7, read-out: ED₅₀
Method: as §1

Escherichia coli 1507 E = assay: In vitro anti-bacterial activity test (MIC, two-fold dilution method) against the standard strains; format: cell-based; details: Table 1 strain 11: Escherichia coli 1507 E
[19] = test system: Staphylococcus aureus 285; assay: as above; format: cell-based; details: Table 1 strain 5: Staphylococcus aureus 285; read-out: MIC
[20] = test system: Pseudomonas aeruginosa 1771; assay: as above; format: cell-based; details: Table 1 strain 14: Pseudomonas aeruginosa 1771
[21] = test system: Staphylococcus aureus SG 511; assay: as above; format: cell-based; details: SG511; Table 1 strain 4: Staphylococcus aureus SG 511
[22] = test system: Klebsiella aerogenes 1522 E; assay: as above; format: cell-based; details: Table 1 strain 18: Klebsiella aerogenes 1522 E
[23] = test system: Staphylococcus aureus 706 E; assay: In vitro anti-bacterial activity test (MIC, two-fold dilution method), Table 2 strains; format: cell-based; details: Table 2 strain 14: Staphylococcus aureus 706 E; read-out: MIC
[24] = test system: Streptococcus faecium MD 8b; assay: In vitro anti-bacterial activity test (MIC, two-fold dilution method) against the standard strains; format: cell-based; details: Enterococcus faecium, MD8B; Table 1 strain 3: Streptococcus faecium MD 8b; read-out: MIC
Escherichia coli DC 0 [25] = assay: as above; format: cell-based; details: DC0; Table 1 strain 7: Escherichia coli DC 0
Escherichia coli OTEM = assay: as above; format: cell-based; details: Table 1 strain 10: Escherichia coli OTEM
[26] = test system: Staphylococcus aureus 701 E; assay: In vitro anti-bacterial activity test (MIC, two-fold dilution method), Table 2 strains; format: cell-based; details: Table 2 strain 11: Staphylococcus aureus 701 E; read-out: MIC
[27] = test system: Staphylococcus aureus 503; assay: In vitro anti-bacterial activity test (MIC, two-fold dilution method) against the standard strains; format: cell-based; details: Table 1 strain 6: Staphylococcus aureus 503; read-out: MIC
[28] = test system: Staphylococcus aureus 707 E; assay: In vitro anti-bacterial activity test (MIC, two-fold dilution method), Table 2 strains; format: cell-based; details: Table 2 strain 15: Staphylococcus aureus 707 E; read-out: MIC
[29] = test system: Staphylococcus aureus 694 E; assay: as above; format: cell-based; details: Table 2 strain 8: Staphylococcus aureus 694 E; read-out: MIC
[30] = test system: Staphylococcus aureus 692 E; assay: as above; format: cell-based; details: Table 2 strain 6: Staphylococcus aureus 692 E
[31] = test system: Streptococcus pyogenes 308 A; assay: In vitro anti-bacterial activity test (MIC, two-fold dilution method) against the standard strains; format: cell-based; details: Table 1 strain 1: Streptococcus pyogenes 308 A
[32] = test system: Pseudomonas aeruginosa 1771 M; assay: as above; format: cell-based; details: Table 1 strain 15: Pseudomonas aeruginosa 1771 M
Escherichia coli DC 0 [33] = assay: as above; format: cell-based; details: DC0; Table 1 strain 8: Escherichia coli DC 0
[34] = test system: Staphylococcus aureus 208 E; assay: In vitro anti-bacterial activity test (MIC, two-fold dilution method), Table 2 strains; format: cell-based; details: Table 2 strain 3: Staphylococcus aureus 208 E; read-out: MIC
[35] = test system: Enterobacter cloacae 1321 E; assay: In vitro anti-bacterial activity test (MIC, two-fold dilution method) against the standard strains; format: cell-based; details: Table 1 strain 20: Enterobacter cloacae 1321 E

## CC1COc2c(N3CCN(C)CC3)c(F)cc3c(=O)c(C(=O)O)cn1c23 (stereo not shown) [Ofloxacin, ofloxacin, reference compound]
[1]
  MIC: 1.56 µg/mL (≈ 4.33 µM)
[2]
  MIC: 0.391 µg/mL (≈ 1.08 µM)
[3]
  MIC: 1.56 µg/mL (≈ 4.33 µM)
[4]
  MIC: 0.391 µg/mL (≈ 1.08 µM)
Escherichia coli DC 2
  MIC: 0.195 µg/mL (≈ 0.54 µM)
[5]
  MIC: 0.391 µg/mL (≈ 1.08 µM)
[6]
  MIC: < 0.002 µg/mL
[7]
  MIC: 0.025 µg/mL (≈ 0.0692 µM)
[8]
  MIC: 0.781 µg/mL (≈ 2.16 µM)
[9]
  MIC: 1.56 µg/mL (≈ 4.33 µM)
[10]
  MIC: 0.781 µg/mL (≈ 2.16 µM)
[11]
  MIC: 0.781 µg/mL (≈ 2.16 µM)
[12]
  MIC: 0.391 µg/mL (≈ 1.08 µM)
Salmonella typhimurium
  MIC: 0.025 µg/mL (≈ 0.0692 µM)
[13]
  MIC: 0.391 µg/mL (≈ 1.08 µM)
[14]
  MIC: 0.391 µg/mL (≈ 1.08 µM)
[15]
  MIC: 0.195 µg/mL (≈ 0.54 µM)
[16]
  MIC: 0.781 µg/mL (≈ 2.16 µM)
[17]
  MIC: 0.781 µg/mL (≈ 2.16 µM)
[18]
  MIC: 0.391 µg/mL (≈ 1.08 µM)
S. aureus 17740; Oral Administration
  ED50: > 200 mg/kg
S. aureus 17740; sc, Subcutaneous Injection
  ED50: 200 mg/kg
P. mirabilis; Oral Administration
  ED50: 2.21 mg/kg
P. mirabilis; sc, Subcutaneous Injection
  ED50: 0.33 mg/kg
Escherichia coli 1507 E
  MIC: 0.049 µg/mL (≈ 0.136 µM)
[19]
  MIC: 0.391 µg/mL (≈ 1.08 µM)
[20]
  MIC: 1.56 µg/mL (≈ 4.33 µM)
[21]
  MIC: 0.195 µg/mL (≈ 0.54 µM)
[22]
  MIC: 0.049 µg/mL (≈ 0.136 µM)
[23]
  MIC: 0.781 µg/mL (≈ 2.16 µM)
[24]
  MIC: 0.781 µg/mL (≈ 2.16 µM)
Escherichia coli DC 0 [25]
  MIC: 0.013 µg/mL (≈ 0.036 µM)
Escherichia coli OTEM
  MIC: 0.049 µg/mL (≈ 0.136 µM)
[26]
  MIC: 0.781 µg/mL (≈ 2.16 µM)
[27]
  MIC: 0.391 µg/mL (≈ 1.08 µM)
[28]
  MIC: 0.781 µg/mL (≈ 2.16 µM)
[29]
  MIC: 0.781 µg/mL (≈ 2.16 µM)
[30]
  MIC: 0.391 µg/mL (≈ 1.08 µM)
[31]
  MIC: 3.12 µg/mL (≈ 8.65 µM)
[32]
  MIC: 0.391 µg/mL (≈ 1.08 µM)
Escherichia coli DC 0 [33]
  MIC: 0.391 µg/mL (≈ 1.08 µM)
[34]
  MIC: 0.781 µg/mL (≈ 2.16 µM)
[35]
  MIC: 0.013 µg/mL (≈ 0.036 µM)

## Nc1c(F)c(N2CCC3(CC3N)C2)c(F)c2c1c(=O)c(C(=O)O)cn2C1CC1 (stereo not shown) [Example 7, 7-(1-amino-5-azaspiro[2,4]heptane-5-yl)-1-cyclopropyl-5-amino-6,8-difluoro-1,4-dihydro-4-oxo-quinoline-3-carboxylic acid]
[1]
  MIC: 1.56 µg/mL (≈ 4 µM)
[2]
  MIC: 0.007 µg/mL (≈ 0.0179 µM)
[3]
  MIC: 1.56 µg/mL (≈ 4 µM)
[4]
  MIC: 0.025 µg/mL (≈ 0.064 µM)
Escherichia coli DC 2
  MIC: 0.098 µg/mL (≈ 0.251 µM)
[5]
  MIC: 0.013 µg/mL (≈ 0.0333 µM)
[6]
  MIC: 0.007 µg/mL (≈ 0.0179 µM)
[7]
  MIC: 0.025 µg/mL (≈ 0.064 µM)
[8]
  MIC: 0.025 µg/mL (≈ 0.064 µM)
[9]
  MIC: 0.195 µg/mL (≈ 0.5 µM)
[10]
  MIC: 0.025 µg/mL (≈ 0.064 µM)
[11]
  MIC: 0.025 µg/mL (≈ 0.064 µM)
[12]
  MIC: 0.013 µg/mL (≈ 0.0333 µM)
Salmonella typhimurium
  MIC: 0.025 µg/mL (≈ 0.064 µM)
[13]
  MIC: 0.013 µg/mL (≈ 0.0333 µM)
[14]
  MIC: 0.013 µg/mL (≈ 0.0333 µM)
[15]
  MIC: 0.007 µg/mL (≈ 0.0179 µM)
[16]
  MIC: 0.098 µg/mL (≈ 0.251 µM)
[17]
  MIC: 0.025 µg/mL (≈ 0.064 µM)
[18]
  MIC: 0.013 µg/mL (≈ 0.0333 µM)
Escherichia coli 1507 E
  MIC: 0.098 µg/mL (≈ 0.251 µM)
[19]
  MIC: 0.025 µg/mL (≈ 0.064 µM)
[20]
  MIC: 0.781 µg/mL (≈ 2 µM)
[21]
  MIC: 0.025 µg/mL (≈ 0.064 µM)
[22]
  MIC: 0.098 µg/mL (≈ 0.251 µM)
[23]
  MIC: 0.025 µg/mL (≈ 0.064 µM)
[24]
  MIC: 0.391 µg/mL (≈ 1 µM)
Escherichia coli DC 0 [25]
  MIC: 0.007 µg/mL (≈ 0.0179 µM)
Escherichia coli OTEM
  MIC: 0.025 µg/mL (≈ 0.064 µM)
[26]
  MIC: 0.025 µg/mL (≈ 0.064 µM)
[27]
  MIC: 0.025 µg/mL (≈ 0.064 µM)
[28]
  MIC: 0.025 µg/mL (≈ 0.064 µM)
[29]
  MIC: 0.025 µg/mL (≈ 0.064 µM)
[30]
  MIC: 0.013 µg/mL (≈ 0.0333 µM)
[31]
  MIC: 0.391 µg/mL (≈ 1 µM)
[32]
  MIC: 0.391 µg/mL (≈ 1 µM)
Escherichia coli DC 0 [33]
  MIC: 0.391 µg/mL (≈ 1 µM)
[34]
  MIC: 0.025 µg/mL (≈ 0.064 µM)
[35]
  MIC: 0.013 µg/mL (≈ 0.0333 µM)
